{
  "source": "the OPERA property sets (Mansouri et al. 2018)",
  "data": [
    {"values": [
      {"smiles": "CNC(=O)ON=C1SCOC1C(C)C", "note": "(centres undefined)", "logP": 1.48},
      {"smiles": "CNC(=O)ON=C1SCOC1CCOC", "note": "(centres undefined)", "logP": 0.51},
      {"smiles": "CNC(=O)ON=C1CSCCS1", "logP": 0.49},
      {"smiles": "CNC(=O)ON=C1SC(C)OC1C", "note": "(centres undefined)", "logP": 0.96},
      {"smiles": "CNC(=O)ON=C1SCSC1C", "note": "(centres undefined)", "logP": 0.91},
      {"smiles": "CNC(=O)ON=C1SCSC1(C)C", "logP": 1.31},
      {"smiles": "CNC(=O)ON=C1SCCSC1(C)C", "logP": 1.51},
      {"smiles": "CNC(=O)ON=C1CSCS1", "logP": 0.51},
      {"smiles": "CNC(=O)ON=C1SCOC1(C)C", "logP": 0.82},
      {"smiles": "CNC(=O)ON=C1CSC(C)(C)S1", "logP": 1.33},
      {"smiles": "CCCC1OCSC1=NOC(=O)NC", "note": "(centres undefined)", "logP": 1.52},
      {"smiles": "CNC(=O)ON=C1COCS1", "logP": 0.06},
      {"smiles": "CNC(=O)ON=C1COCCS1", "logP": 0},
      {"smiles": "CNC(=O)ON=C1SCOC1C", "note": "(centres undefined)", "logP": 0.46}
    ]}
  ]
}
